Literature values, collected in patent publication US11491138B2, “Injectable psychoactive alkaloid composition and preparation thereof” (PSILO SCIENTIFIC LTD, priority 2020, dated 2022).

Experiments:
[1] = stated as known property
[2] = reason for composition pH of 4.5-5.5

CN(C)CCc1c[nH]c2cccc(O)c12 [psilocin]
isoelectric point [1]: 8.47±0.25 pH | pH at which instability occurs [2]: over 5.5 pH
